Laboratory results from patent US9046767B2, “Photoacid generator, photoresist, coated substrate, and method of forming an electronic device” (ROHM AND HAAS ELECTRONIC MATERIALS LLC, priority 2013, dated 2015).

Experiment: Solubility evaluation of photoacid generators in organic solvents
Assay type: physicochemical
Conditions: 2 weight percent, room temperature; for Solubility in 2-Heptanone: solvent 2-Heptanone; for Solubility in PGMEA: solvent PGMEA; for Solubility in 2-Hepanone/n-Butyl Propionate (1:1 w/w): solvent blend 1:1 w/w; for Solubility in n-Butyl Acetate: solvent n-Butyl Acetate
Protocol: The photoacid generators were evaluated for solubility in a selection of organic solvents. Solubility of each of the compounds PAG-2, PAG-A1, PAG-A2 were obtained for attempts to completely dissolve the PAG at 2 weight percent at room temperature in different organic solvents and solvent blends. The results for the solubility tests (i.e., where the PAG is observed to be completely soluble in the solvent, or is only partially soluble or insoluble based on the presence of insoluble material) are shown in Table 1, where “O” indicates solubility at 2 weight percent, and “X” indicates partial solubility or insolubility at 2 weight percent.

Molecule	Solubility in 2-Heptanone	Solubility in PGMEA	Solubility in 2-Hepanone/n-Butyl Propionate (1:1 w/w)	Solubility in n-Butyl Acetate
Triphenylsulfonium 1,1-difluoro-2-((-3-hydroxyadamantan-1-yl)methoxy)-2-oxoethanesulfonate [C. PAG 2, reference compound]	X (“X” indicates partial solubility or insolubility at 2 weight percent)	X (“X” indicates partial solubility or insolubility at 2 weight percent)	X (“X” indicates partial solubility or insolubility at 2 weight percent)	X (“X” indicates partial solubility or insolubility at 2 weight percent)
4-(2-oxo-2-(2,2,2′,2′-tetramethyl-4,4′-bis(1,3-dioxolan)-5-yl-methoxyethoxy)phenyl)diphenylsulfonium 1-adamantyl-3,3,4,4-tetrafluorobutane sulfonate [PAG-A1]	◯	◯	◯	◯
CC1(C)OCC(C2OC(C)(C)OC2COC(=O)COc2ccc([S+](c3ccccc3)c3ccccc3)cc2)O1.O=C(OCC12CC3CC(CC(O)(C3)C1)C2)C(F)(F)S(=O)(=O)[O-] (stereo not drawn) [PAG-A2, 4-(2-oxo-2-(2,2,2′,2′-tetramethyl-4,4′-bis(1,3-dioxolan)-5-yl-methoxyethoxy)phenyl)diphenylsulfonium 1,1-difluoro-2-(3-hydroxyadamantan-1-yl-methoxy)-2-oxoethanesulfonate]	◯	◯	◯	◯
